Values joined by “and” are separate entries in the source; they are usually repeats but may differ in a detail not shown here. Equal entries are not always repeated.
What was measured:
[1] = cited from earlier work
UGT2B17 and CYP2C19 = test: Pharmacogenetic analysis of pooled Phase 1 PK: combined UGT2B17 and CYP2C19 phenotype vs double EM; conditions: model-based estimates
Experimental: Linear mixed effect model analyses were performed on the natural log transformed PK parameters from the four pooled Phase 1 studies, separately for AUC and Cmax. The model contained fixed effects of natural log transformed dose, drug formulation (old or new), enzyme phenotype determined from genotype, relevant additional covariates, and a random subject effect. UGT2B17 phenotype was considered as a categorical variable with dummy encoding for each phenotype (intermediate metabolizers (IM), poor metabolizers (PM)) that differed from the extensive metabolizer (EM) category). […]
To understand the differences in exposure between different genetic phenotype categories, least square means were computed for each UGT2B17 phenotype, each CYP2C19 phenotype, and for each combination UGT2B17/CYP2C19 phenotype. […] Similar analyses were also conducted separately within each UGT2B17 phenotype group to quantify the difference in exposure between CYP2C19 phenotype groups separately for each UGT2B17 phenotype. […]
The Phase 1 PK endpoints analyzed were AUCo->following single dose (SD) administration and steady state AUCo-, following multiple dose (MD) administration pooled, as well as Cmax following SD administration and steady state Cmax following MD administration pooled. […]

[2] = Effect of body weight on MK-6482 exposure (pooled Phase 1 mixed effects model); conditions: for % Change in AUC (h*ng/mL) per 10 kg increase in body weight / % Change in Cmax (ng/mL) per 10 kg increase in body weight: model accounting for dose, formulation
Experimental: Linear mixed effect model analyses were performed on the natural log transformed PK parameters from the four pooled Phase 1 studies, separately for AUC and Cmax. The model contained fixed effects of natural log transformed dose, drug formulation (old or new), enzyme phenotype determined from genotype, relevant additional covariates, and a random subject effect. UGT2B17 phenotype was considered as a categorical variable with dummy encoding for each phenotype (intermediate metabolizers (IM), poor metabolizers (PM)) that differed from the extensive metabolizer (EM) category). Similarly, CYP2C19 metabolizer status was considered as a categorical variable with dummy encoding for each phenotype (PM, IM, rapid metabolizers (RM) and ultra-rapid metabolizers (UM)) that differed from the EM category. Relevant covariates were selected under the null hypothesis from the following: disease (healthy vs patient), body weight (in kg), age, gender, and dose-by-body weight and dose-by-formulation interactions. Final models used to generate tables in this Example include log (dose), formulation (old/new), body weight (kg), and enzyme phenotype as variables.
Between- and within-subject random effects were modeled via terms Si and ϵij, respectively, and assumed to be normally distributed.
Presence of an interactive effect was tested using an F-test with Kenward-Roger denominator degrees of freedom for the fixed effects. As a descriptive measure, the effect of body weight on exposure was also calculated separately within each UGT2B17 group using a mixed effects model accounting for log(dose) and formulation only. […] For the overall estimate, model (1) was used.

UGT2B17 = molecular target: T1, UGT2B17 (Homo sapiens, UniProt O75795)
T1 sequence (O75795 24-530): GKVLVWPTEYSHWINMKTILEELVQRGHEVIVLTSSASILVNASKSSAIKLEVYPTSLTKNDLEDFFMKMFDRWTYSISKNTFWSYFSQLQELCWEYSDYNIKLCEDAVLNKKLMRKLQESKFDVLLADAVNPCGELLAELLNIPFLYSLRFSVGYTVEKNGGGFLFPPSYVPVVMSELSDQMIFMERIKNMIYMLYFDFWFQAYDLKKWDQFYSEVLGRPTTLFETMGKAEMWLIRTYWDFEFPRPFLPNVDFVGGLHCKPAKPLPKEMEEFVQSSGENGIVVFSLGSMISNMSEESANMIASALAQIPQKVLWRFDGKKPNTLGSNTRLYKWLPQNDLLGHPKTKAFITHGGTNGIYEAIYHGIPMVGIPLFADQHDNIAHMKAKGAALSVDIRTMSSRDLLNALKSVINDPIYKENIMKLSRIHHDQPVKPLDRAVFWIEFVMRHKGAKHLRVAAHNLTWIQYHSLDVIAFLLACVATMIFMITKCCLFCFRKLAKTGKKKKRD

[3] = Effect of dose and formulation on MK-6482 exposure (pooled Phase 1 mixed effects model); conditions: human, in vivo
Source text: There are many important differences in patient composition between the trials. To note, MK-6482-001 was a first-in-human dose finding trial studying patients with advanced solid tumors or renal cell carcinoma (RCC), while MK-6482-002,-006, and-007 were PK trials conducted with (predominantly female) healthy volunteers. In addition, study-007 enrolled Japanese subjects based on specific CYP2C19 phenotypes; all other studies enrolled subjects without genotype-based selection criteria. Finally, the protocols differed in terms of belzutifan formulation given to trial subjects: subjects in protocols 001 and 002 were given one formulation of belzutifan, study 006 compared that formulation and a new formulations, enrolling all subjects to receive both the formulations, and study 007 patients only received the new formulation of MK-6482.

[4] = dose-escalation cohort, doses up to 160 mg once daily

In the case of `CS(=O)(=O)c1ccc(Oc2cc(F)cc(C#N)c2)c2c1[C@H](O)[C@H](F)[C@@H]2F` [MK-6482, 3-[(1S,2S, 3R)-2,3-Difluoro-1-hydroxy-7-methylsulfonyl-indan-4-yl]oxy-5-fluoro-benzonitrile], the dose-limiting toxicities [1, 4] is listed as “no dose-limiting toxicities occurred”, the maximum tolerated dose [1, 4] is listed as “not reached” and the “most common adverse events” value ([1]; heavily pre-treated patients with ccRCC) is listed as “anemia and hypoxia”. The “exposure of PMs of both enzymes relative to EMs of both enzymes” value (UGT2B17 and CYP2C19) was “over four-fold”, the “expected difference in exposure between extremes of body weight” value ([2]; 41 kg vs 164 kg, independent of enzyme phenotype) was about 2.9 fold and the “% Change in AUC (h*ng/mL) per 10 kg increase in body weight” value ([2]; UGT2B17 EM) was −10.9%. The “% Change in Cmax (ng/mL) per 10 kg increase in body weight” value ([2]; UGT2B17 EM) was −6.4%, the “% Change in AUC (h*ng/mL) per 10 kg increase in body weight” value ([2]; UGT2B17 IM) was −8.3% and the “% Change in Cmax (ng/mL) per 10 kg increase in body weight” value ([2]; UGT2B17 IM) was −7.8%. For the same compound, the “% Change in AUC (h*ng/mL) per 10 kg increase in body weight” value ([2]; UGT2B17 PM) was −15.5%, the “% Change in Cmax (ng/mL) per 10 kg increase in body weight” value ([2]; UGT2B17 PM) was −4.5% and the “decrease in AUC for every 10 kg increase in body weight” value ([2]; overall, all subjects) was 9.2 (6.5, 12.0) % and 9.2%. The “decrease in Cmax for every 10 kg increase in body weight” value ([2]; overall, all subjects) was 7.0 (4.5, 9.5) %, the “metabolism (primary pathway and enzyme)” value (UGT2B17) was “metabolized primarily by glucuronidation, catalyzed predominantly by UDP Glucuronosyltransferase Family 2 Member B17 (UGT2B17)” and the “effect of dose on Cmax, estimated coefficient of log(dose)” value [3] was 0.90.

— patent publication US20240327929A1, “DOSAGE REGIMEN FOR ADMINISTRATION OF BELZUTIFAN” (MERCK SHARP & DOHME LLC, priority 2021, published 2024)
